Assay results published in patent US12059409B1, “Pharmaceutical composition for modified release” (ASTELLAS PHARMA INC., priority 2008, dated 2024).

Assay: Clinical trial of compound A in conventional formulations (not published)
Details: human, in vivo; read-out: elimination half-life (T1/2)
Description: These problems are considered to be raised by, for example, the changes in pharmacokinetics caused by food, and therefore, the development of a formulation capable of avoiding the effects by food intake is desired.
Taking into consideration the results of the clinical trial described above, the present inventors conducted intensive studies to design the formulation by paying attention to the control of a release rate of the drug from a formulation to the extent that the release is not affected by food intake or the like, rather than the addition of release control.
On the basis of blood concentration profiles (in a fasted state/after the intake of food) after administration of a conventional formulation (rapid release formulation), the absorption rate of the drug in a fed state was calculated by a deconvolution method to predict continuous absorption for about 4 hours.

half-life: 18 to 24 h
SMILES: Nc1nc(CC(=O)Nc2ccc(CCNC[C@H](O)c3ccccc3)cc2)cs1 [compound A, (R)-2-(2-aminothiazol-4-yl)-4′-[2-[(2-hydroxy-2-phenylethyl)amino]ethyl]acetic acid anilide]
